In test [1] the target is T1, Estrogen receptor (Homo sapiens, UniProt P03372).
T1 sequence (P03372 whole entry): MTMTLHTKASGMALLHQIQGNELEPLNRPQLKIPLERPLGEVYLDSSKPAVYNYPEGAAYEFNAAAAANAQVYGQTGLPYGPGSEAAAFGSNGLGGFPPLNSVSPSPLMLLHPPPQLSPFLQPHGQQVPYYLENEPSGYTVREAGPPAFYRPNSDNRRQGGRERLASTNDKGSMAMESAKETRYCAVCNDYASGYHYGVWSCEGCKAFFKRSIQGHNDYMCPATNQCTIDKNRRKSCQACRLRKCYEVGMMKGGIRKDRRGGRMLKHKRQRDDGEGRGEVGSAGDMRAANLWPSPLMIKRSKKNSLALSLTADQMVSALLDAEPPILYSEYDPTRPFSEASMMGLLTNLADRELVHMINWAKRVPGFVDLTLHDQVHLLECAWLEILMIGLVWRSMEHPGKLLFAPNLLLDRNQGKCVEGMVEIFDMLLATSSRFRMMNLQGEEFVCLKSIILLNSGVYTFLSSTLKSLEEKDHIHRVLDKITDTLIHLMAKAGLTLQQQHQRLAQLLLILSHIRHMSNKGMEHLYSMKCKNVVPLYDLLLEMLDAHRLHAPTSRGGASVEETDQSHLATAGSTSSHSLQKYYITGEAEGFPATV

In test [2] the target is T2, Progesterone receptor (Homo sapiens, UniProt P06401).
T2 sequence (P06401 whole entry): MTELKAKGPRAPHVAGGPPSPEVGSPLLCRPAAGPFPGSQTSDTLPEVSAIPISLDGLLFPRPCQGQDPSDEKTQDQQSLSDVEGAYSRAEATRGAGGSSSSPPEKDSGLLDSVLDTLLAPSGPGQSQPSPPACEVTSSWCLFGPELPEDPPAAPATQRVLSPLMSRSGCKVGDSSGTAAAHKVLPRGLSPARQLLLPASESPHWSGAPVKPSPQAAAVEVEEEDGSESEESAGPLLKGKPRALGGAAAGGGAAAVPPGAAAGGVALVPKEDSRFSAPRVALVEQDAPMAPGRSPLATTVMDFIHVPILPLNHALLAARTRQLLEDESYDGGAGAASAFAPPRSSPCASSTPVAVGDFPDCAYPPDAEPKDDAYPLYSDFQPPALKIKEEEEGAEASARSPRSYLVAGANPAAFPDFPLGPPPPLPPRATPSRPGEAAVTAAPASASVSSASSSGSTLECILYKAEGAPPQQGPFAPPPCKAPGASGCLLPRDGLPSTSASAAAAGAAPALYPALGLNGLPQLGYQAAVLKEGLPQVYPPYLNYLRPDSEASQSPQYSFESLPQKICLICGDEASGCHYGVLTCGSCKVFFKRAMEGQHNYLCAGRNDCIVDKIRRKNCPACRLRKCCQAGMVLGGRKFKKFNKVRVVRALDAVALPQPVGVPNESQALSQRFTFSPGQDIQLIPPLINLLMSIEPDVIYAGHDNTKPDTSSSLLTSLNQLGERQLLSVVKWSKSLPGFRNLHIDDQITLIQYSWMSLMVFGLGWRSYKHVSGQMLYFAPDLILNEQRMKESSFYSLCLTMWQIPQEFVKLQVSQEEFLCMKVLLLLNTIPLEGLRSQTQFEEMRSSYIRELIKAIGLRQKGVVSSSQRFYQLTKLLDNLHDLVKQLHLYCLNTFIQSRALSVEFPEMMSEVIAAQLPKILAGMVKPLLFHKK

In test [3] the target is T3, Glucocorticoid receptor (Homo sapiens, UniProt P04150).
T3 sequence (P04150 whole entry): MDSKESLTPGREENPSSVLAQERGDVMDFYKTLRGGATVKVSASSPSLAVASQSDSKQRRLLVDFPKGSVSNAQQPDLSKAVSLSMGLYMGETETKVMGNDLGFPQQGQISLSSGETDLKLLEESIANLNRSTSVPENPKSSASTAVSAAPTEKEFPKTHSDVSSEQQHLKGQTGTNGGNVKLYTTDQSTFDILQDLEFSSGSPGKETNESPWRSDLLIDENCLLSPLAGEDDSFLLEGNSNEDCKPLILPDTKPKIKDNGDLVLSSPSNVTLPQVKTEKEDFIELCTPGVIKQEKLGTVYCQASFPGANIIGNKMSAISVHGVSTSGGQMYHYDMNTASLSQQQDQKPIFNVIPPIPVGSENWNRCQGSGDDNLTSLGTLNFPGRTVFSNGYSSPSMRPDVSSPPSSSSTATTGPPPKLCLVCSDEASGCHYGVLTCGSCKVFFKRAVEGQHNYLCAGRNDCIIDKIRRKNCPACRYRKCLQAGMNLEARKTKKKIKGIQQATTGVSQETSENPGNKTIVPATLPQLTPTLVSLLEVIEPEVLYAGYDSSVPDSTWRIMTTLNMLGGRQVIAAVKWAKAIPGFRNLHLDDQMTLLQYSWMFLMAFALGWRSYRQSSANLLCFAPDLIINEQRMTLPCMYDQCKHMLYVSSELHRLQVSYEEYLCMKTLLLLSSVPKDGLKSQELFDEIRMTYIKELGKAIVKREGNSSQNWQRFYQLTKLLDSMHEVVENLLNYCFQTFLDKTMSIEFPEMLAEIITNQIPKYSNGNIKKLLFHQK

Test [4] deals with T4, Androgen receptor (Rattus norvegicus, UniProt P15207).
T4 sequence (P15207 whole entry): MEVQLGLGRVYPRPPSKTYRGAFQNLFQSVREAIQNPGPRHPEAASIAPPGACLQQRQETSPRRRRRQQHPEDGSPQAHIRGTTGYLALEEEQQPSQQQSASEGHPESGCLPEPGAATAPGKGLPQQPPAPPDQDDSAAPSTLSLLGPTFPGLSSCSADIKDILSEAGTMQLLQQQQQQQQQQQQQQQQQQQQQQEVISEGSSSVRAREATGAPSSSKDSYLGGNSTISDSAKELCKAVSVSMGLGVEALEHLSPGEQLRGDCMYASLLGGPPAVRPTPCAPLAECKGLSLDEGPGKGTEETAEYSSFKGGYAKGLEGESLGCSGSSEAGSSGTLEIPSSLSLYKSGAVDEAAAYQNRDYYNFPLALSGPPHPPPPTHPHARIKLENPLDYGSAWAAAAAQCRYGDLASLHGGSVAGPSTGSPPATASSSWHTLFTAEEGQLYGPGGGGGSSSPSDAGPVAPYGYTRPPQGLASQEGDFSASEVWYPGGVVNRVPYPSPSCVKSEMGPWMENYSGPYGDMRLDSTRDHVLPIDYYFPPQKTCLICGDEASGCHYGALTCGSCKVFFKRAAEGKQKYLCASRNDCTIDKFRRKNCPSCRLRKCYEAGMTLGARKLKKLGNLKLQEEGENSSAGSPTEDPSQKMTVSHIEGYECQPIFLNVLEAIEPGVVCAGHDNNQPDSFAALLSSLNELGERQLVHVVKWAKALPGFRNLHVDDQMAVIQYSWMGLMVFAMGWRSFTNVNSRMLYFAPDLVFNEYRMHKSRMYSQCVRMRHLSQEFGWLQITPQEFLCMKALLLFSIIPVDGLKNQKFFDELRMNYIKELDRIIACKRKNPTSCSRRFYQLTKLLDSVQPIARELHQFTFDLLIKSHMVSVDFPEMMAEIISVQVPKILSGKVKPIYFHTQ

In general, pIC50 refers to −log10 of the IC50, conventionally taken in molar units. By pKi is commonly meant −log10 of the Ki, conventionally taken in molar units. Low values mean a large Ki, high ones a small Ki.

pIC50, pKi: −log10 of the molar value.

`COC1C=C2C=C3C(=C(C)C(=O)N3C)[C@@H](C)[C@]2(C)CC1OC(=O)N(C)C` (stereo partly drawn) [CP8816]: the figures for the negative-log IC50 (pIC50) in test [1] and in test [2] were less than 5.00 and 7.60, respectively. Besides, in test [3], the negative-log Ki (pKi) was less than 5.30.

Turning to `CNC(=O)OC1C[C@]2(C)C(=CC1O)C=C1C(=C(C)C(=O)N1C)[C@H]2C` (stereo partly drawn) [CP8863], the pIC50 was less than 5.00 in test [1], 7.40 in test [2] and 5.01 in test [4]. The compound further showed a pKi in test [3] of less than 5.00.

Consider `CC(=O)OC1(C(C)=O)CCC2C3CC(C)C4=CC(=O)CCC4(C)C3CCC21C` (stereo not drawn) [NSC_4042], for which, in test [3], the pKi is 7.37.

The values are drawn from BindingDB's records for doi:10.1124/jpet.104.074146 (Meiji Seika Kaisha, 2005).
